In US20170313669A1, “LACTONE COMPOUNDS AND METHODS OF MAKING AND USING SAME” (THE SCRIPPS RESEARCH INSTITUTE, priority 2015, published 2017):

Experiments:
[1] = system: human lymphoblast cell lines (LCLs); assay: Lyso-PS content of treated LCLs; format: cell-based; details: 1 μM, 4 h
Method: (§1) ABHD16A^+/+, ABHD16A^+/+, and ABHD16A^−/− littermates of 10 weeks age were anaesthetized by isoflurane and killed by decapitation. The tissues (brains were sliced laterally into two hemispheres; entire spinal cord) were harvested, weighed, and immediately submerged in liquid N2. Tissues (one half brain or entire spinal cord) were then Dounce-homogenized in 8 mL of 2:1:1 (vol/vol/vol) CHCl3: MeOH: PBS containing the internal standard mix (1 nmol 17:1 FFA, and 100 pmol each of 17:1 lyso-PS, 17:0-20:4 PS, 17:1 lyso-PC, 17:0-20:4 PC, 17:0-20:4 PE and 50 pmol of 2-AG-d5). Homogenates were transferred to a glass vial and centrifuged at 2800×g for 10 minutes to separate the two phases. The organic phase (bottom) was removed, 200 μL of formic acid was added to acidify the aqueous homogenate (to enhance extraction of phospholipids), and CHCl3 was added to make up 8 mL volume. […]
(§2) All the metabolites analyzed in this study were quantified using the multiple reaction monitoring (MRM) methods the targeted LC/MS analysis was done using an Agilent Technologies 6460 Triple Quad LC/M with an Agilent Technologies 1290 Infinity series quaternary pump. All data was collected using the LC/MS Data Acquisition mode of the Mass Hunter Workstation Software version B.05.00 build 5.0.5027.0 SP, and analyzed using the Quantitative Analysis mode of the same software. […]

[2] = system: additional off-targets (serine hydrolases); assay: ABPP-SILAC, COLO205 cells treated in situ; format: cell-based, human; details: 1 μM, 4 h
[3] = system: MCF7 cells; assay: PS lipase activity of membrane fraction after in situ treatment; details: 1 μM, 4 h
[4] = system: serine hydrolases; assay: Gel-based ABPP in K562, off-targets; format: cell-based, human
Method: The K562 cell line was treated with varying concentrations of KC01 for 4 h and the cell membrane fractions analyzed by gel-based ABPP. More specifically, the membrane proteome of K562 cells (left gel, FIG. 9) or cultured K562 cells (right gel, FIG. 9) were treated with the indicated concentrations of KC01 (in vitro: 1 mg/mL proteome; 30 min treatment, 37° C.; in situ: 2×10^6 cells; 4 h treatment, 37° C.), followed by FP-rhodamine (added in vitro to cell proteomes at 2 μM for 30 min, 37° C.) and analyzed by gel-based ABPP. Estimated in vitro and in situ IC50 values for KC01 from the gel-based ABPP experiments were 0.2-0.5 μM. Gel-based ABPP experiments were performed in triplicate with consistent results.

[5] = system: ABHD16A−/− macrophages; assay: Lyso-PS and cytokines of ABHD16A−/− macrophages; format: cell-based, mouse; details: basal or LPS stimulation; 1 μM, 4 h
Method: Concentration of secreted lyso-PS (a) and cytokines IL-6 (b) and TNF-α (c) from thioglycollate-elicited peritoneal mouse macrophages from ABHD16A^−/− mice treated with inhibitor (KC01 or KC02, 1 μM, 4 h) followed by vehicle (PBS) or LPS (5 μg/mL) for 7 h is shown. Data represent mean±s.e.m. for four biological replicates. KC01 and KC02 have no effect on lyso-PS or cytokine secretion. Other secreted and cellular lipids in ABHD16A^−/− macrophages were also unchanged by KC01 or KC02 treatment (data not shown).
Peritoneal macrophages were elicited and harvested from mice according to the standard protocols available from LIPID MAPS (See http://www.lipidmaps.org/protocols/PP0000001400.pdf and http://www.lipidmaps.org/protocols/PP0000001500.pdf). After removal of the RBC lysis buffer, the macrophages were re-suspended in RPMI 1640 with 10% FCS and IX penicillin-streptomycin. Cell counts measured using a Bio-Rad TC10 automated cell counter, and equal numbers of cells (2×10^6) were plated in 10 cm tissue culture dishes. Macrophages were allowed to adhere to the plates for 2 h at 37° C. and 5% CO2. […] Macrophages were then stimulated with lipopolysaccharide (5 μg/mL) for 7 hours. Sterile PBS was the vehicle in these studies. Four milliliters of the media was used for measuring secreted metabolites, and 0.5 mL was used for cytokine measurements.

[6] = system: mouse peritoneal macrophages; assay: Lyso-PS content of thioglycollate-elicited peritoneal macrophages; format: cell-based; details: pre-treatment 1 μM, 4 h; LPS 5 μg/mL, 7 h
Method: as §1, §2

[7] = target: PS lipase activity of mouse peritoneal macrophages (Mus musculus, UniProt Q9Z1Q2); assay: PS lipase activity of peritoneal macrophage membrane proteomes; details: LPS-stimulated macrophages; 1 μM, 30 min, 37° C.
Sequence of PS lipase activity of mouse peritoneal macrophages (Q9Z1Q2 whole entry): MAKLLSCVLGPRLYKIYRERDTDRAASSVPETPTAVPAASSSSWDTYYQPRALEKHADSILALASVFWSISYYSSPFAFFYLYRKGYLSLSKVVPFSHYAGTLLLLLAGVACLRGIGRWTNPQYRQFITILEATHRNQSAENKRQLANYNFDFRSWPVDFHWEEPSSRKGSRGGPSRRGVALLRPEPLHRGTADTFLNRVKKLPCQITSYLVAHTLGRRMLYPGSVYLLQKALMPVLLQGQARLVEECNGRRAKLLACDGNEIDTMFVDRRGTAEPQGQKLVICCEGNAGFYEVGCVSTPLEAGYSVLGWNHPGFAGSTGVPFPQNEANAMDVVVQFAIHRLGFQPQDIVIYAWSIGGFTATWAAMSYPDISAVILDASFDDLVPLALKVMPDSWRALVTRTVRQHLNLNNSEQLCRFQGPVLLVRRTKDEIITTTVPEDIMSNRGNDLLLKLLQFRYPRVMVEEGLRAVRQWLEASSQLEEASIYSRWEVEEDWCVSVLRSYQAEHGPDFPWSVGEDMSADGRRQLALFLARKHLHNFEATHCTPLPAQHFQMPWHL

## CCCCCCCCCCCCCC1OC(=O)/C1=C\CCCCC(N)=O (centres unmarked) [KC01, (Z)-6-(2-oxo-4-tridecyloxetan-3-ylidene)hexanamide]
[1]; ABHD12-null LCL
  secreted lyso-PSs: significantly lowered
[1]; all LCLs
  cellular lyso-PSs: decreased cellular lyso-PSs
[2]
  inhibition: 50-80%
[3]
  decrease of PS-lipase activity vs DMSO: > 90%
[4]
  off-targets detected: Very few off-targets
[5]
  cellular or secreted lyso-PS, other lipids, secreted IL-6 and TNF-α: No changes
[6]
  basal and LPS-induced cellular and secreted lyso-PSs: reduced
[7]
  PS lipase activity: blocked
